# Test results from patent publication US20100267561A1, “HERBICIDAL PYRIDAZINONE DERIVATIVES” (priority 2007, published 2010).
# What was measured:
# Assay in all cases: Test E pre-/postemergence plant response
# Assay type in all cases: in vivo
# [1] = system: barnyardgrass (Echinochloa crus-galli); details: scale 0 to 100
# In short: (§1)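 Plant response was judged by eye relative to controls, 0 meaning no effect and 100 complete control, after 14 to 21 days under greenhouse conditions. Compound was formulated in a non-phytotoxic solvent mixture with surfactant.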
# [2] = system: guineagrass (Panicum maximum); details: scale 0 to 100
# In short: as §1
# [3] = system: common chickweed (Stellaria media); details: Postemergence, scale 0 to 100
# In short: as §1
# [4] = system: bermudagrass (Cynodon dactylon); details: scale 0 to 100
# In short: as §1
# [5] = system: naked crabgrass (Digitaria nuda); details: scale 0 to 100
# In short: as §1
# [6] = system: itchgrass (Rottboellia cochinchinensis); details: scale 0 to 100
# In short: as §1
# [7] = system: goosegrass (Eleusine indica); details: scale 0 to 100
# In short: as §1
# [8] = system: black mustard (Brassica nigra); details: scale 0 to 100
# In short: as §1
# [9] = system: annual bluegrass (Poa annua); details: scale 0 to 100
# In short: as §1
# [10] = system: pitted morningglory (Ipomoea lacunosa); details: scale 0 to 100
# In short: as §1
# [11] = system: Italian ryegrass (Lolium multiflorum); details: scale 0 to 100
# In short: as §1
smiles,measurement,setting,value
CCc1cc(-c2ccc(Cl)cc2)nn1-c1c(OS(C)(=O)=O)cnn(C)c1=O [Compound 39],"Plant response rating, Barnyardgrass","[1]; 8 g ai/ha, Preemergence",90
same,"Plant response rating, Barnyardgrass","[1]; 16 g ai/ha, Preemergence",90
same,"Plant response rating, Barnyardgrass","[1]; 31 g ai/ha, Preemergence",100
same,"Plant response rating, Barnyardgrass","[1]; 62 g ai/ha, Preemergence",100
same,"Plant response rating, Barnyardgrass","[1]; Postemergence, 8 g ai/ha",100
same,"Plant response rating, Barnyardgrass","[1]; Postemergence, 16 g ai/ha",100
same,"Plant response rating, Barnyardgrass","[1]; Postemergence, 31 g ai/ha",100
same,"Plant response rating, Barnyardgrass","[1]; Postemergence, 62 g ai/ha",100
same,"Plant response rating, Guineagrass","[2]; 16 g ai/ha, Preemergence",100
same,"Plant response rating, Guineagrass","[2]; 31 g ai/ha, Preemergence",100
same,"Plant response rating, Guineagrass","[2]; 62 g ai/ha, Preemergence",100
same,"Plant response rating, Guineagrass","[2]; Postemergence, 8 g ai/ha",80
same,"Plant response rating, Guineagrass","[2]; Postemergence, 16 g ai/ha",80
same,"Plant response rating, Guineagrass","[2]; Postemergence, 31 g ai/ha",90
same,"Plant response rating, Guineagrass","[2]; Postemergence, 62 g ai/ha",95
same,"Plant response rating, Chickweed",[3]; 8 g ai/ha,0
same,"Plant response rating, Chickweed",[3]; 16 g ai/ha,0
same,"Plant response rating, Chickweed",[3]; 31 g ai/ha,0
same,"Plant response rating, Chickweed",[3]; 62 g ai/ha,0
same,"Plant response rating, Bermudagrass","[4]; 8 g ai/ha, Preemergence",20
same,"Plant response rating, Bermudagrass","[4]; 16 g ai/ha, Preemergence",75
same,"Plant response rating, Bermudagrass","[4]; 31 g ai/ha, Preemergence",95
same,"Plant response rating, Bermudagrass","[4]; 62 g ai/ha, Preemergence",100
same,"Plant response rating, Bermudagrass","[4]; Postemergence, 8 g ai/ha",35
same,"Plant response rating, Bermudagrass","[4]; Postemergence, 16 g ai/ha",40
same,"Plant response rating, Bermudagrass","[4]; Postemergence, 31 g ai/ha",50
same,"Plant response rating, Bermudagrass","[4]; Postemergence, 62 g ai/ha",65
same,"Plant response rating, Crabgrass, Naked","[5]; 8 g ai/ha, Preemergence",75
same,"Plant response rating, Crabgrass, Naked","[5]; 16 g ai/ha, Preemergence",98
same,"Plant response rating, Crabgrass, Naked","[5]; 31 g ai/ha, Preemergence",98
same,"Plant response rating, Crabgrass, Naked","[5]; 62 g ai/ha, Preemergence",100
same,"Plant response rating, Crabgrass, Naked","[5]; Postemergence, 8 g ai/ha",65
same,"Plant response rating, Crabgrass, Naked","[5]; Postemergence, 16 g ai/ha",80
same,"Plant response rating, Crabgrass, Naked","[5]; Postemergence, 31 g ai/ha",80
same,"Plant response rating, Crabgrass, Naked","[5]; Postemergence, 62 g ai/ha",98
same,"Plant response rating, Itchgrass","[6]; 16 g ai/ha, Preemergence",60
same,"Plant response rating, Itchgrass","[6]; 31 g ai/ha, Preemergence",75
same,"Plant response rating, Itchgrass","[6]; 62 g ai/ha, Preemergence",80
same,"Plant response rating, Itchgrass","[6]; Postemergence, 8 g ai/ha",20
same,"Plant response rating, Itchgrass","[6]; Postemergence, 16 g ai/ha",25
same,"Plant response rating, Itchgrass","[6]; Postemergence, 31 g ai/ha",40
same,"Plant response rating, Itchgrass","[6]; Postemergence, 62 g ai/ha",60
same,"Plant response rating, Goosegrass","[7]; 8 g ai/ha, Preemergence",75
same,"Plant response rating, Goosegrass","[7]; 16 g ai/ha, Preemergence",80
same,"Plant response rating, Goosegrass","[7]; 31 g ai/ha, Preemergence",100
same,"Plant response rating, Goosegrass","[7]; 62 g ai/ha, Preemergence",100
same,"Plant response rating, Goosegrass","[7]; Postemergence, 8 g ai/ha",35
same,"Plant response rating, Goosegrass","[7]; Postemergence, 16 g ai/ha",70
same,"Plant response rating, Goosegrass","[7]; Postemergence, 31 g ai/ha",80
same,"Plant response rating, Goosegrass","[7]; Postemergence, 62 g ai/ha",95
same,"Plant response rating, Mustard, Black","[8]; 8 g ai/ha, Preemergence",0
same,"Plant response rating, Mustard, Black","[8]; 16 g ai/ha, Preemergence",0
same,"Plant response rating, Mustard, Black","[8]; 31 g ai/ha, Preemergence",0
same,"Plant response rating, Mustard, Black","[8]; 62 g ai/ha, Preemergence",0
same,"Plant response rating, Mustard, Black","[8]; Postemergence, 8 g ai/ha",0
same,"Plant response rating, Mustard, Black","[8]; Postemergence, 16 g ai/ha",0
same,"Plant response rating, Mustard, Black","[8]; Postemergence, 31 g ai/ha",0
same,"Plant response rating, Mustard, Black","[8]; Postemergence, 62 g ai/ha",0
same,"Plant response rating, Bluegrass","[9]; 8 g ai/ha, Preemergence",0
same,"Plant response rating, Bluegrass","[9]; 16 g ai/ha, Preemergence",0
same,"Plant response rating, Bluegrass","[9]; 31 g ai/ha, Preemergence",0
same,"Plant response rating, Bluegrass","[9]; 62 g ai/ha, Preemergence",0
same,"Plant response rating, Bluegrass","[9]; Postemergence, 8 g ai/ha",0
same,"Plant response rating, Bluegrass","[9]; Postemergence, 16 g ai/ha",0
same,"Plant response rating, Bluegrass","[9]; Postemergence, 31 g ai/ha",0
same,"Plant response rating, Bluegrass","[9]; Postemergence, 62 g ai/ha",0
same,"Plant response rating, Morningglory","[10]; 16 g ai/ha, Preemergence",0
same,"Plant response rating, Morningglory","[10]; 31 g ai/ha, Preemergence",0
same,"Plant response rating, Morningglory","[10]; 62 g ai/ha, Preemergence",0
same,"Plant response rating, Morningglory","[10]; Postemergence, 8 g ai/ha",0
same,"Plant response rating, Morningglory","[10]; Postemergence, 16 g ai/ha",0
same,"Plant response rating, Morningglory","[10]; Postemergence, 31 g ai/ha",0
same,"Plant response rating, Morningglory","[10]; Postemergence, 62 g ai/ha",0
same,"Plant response rating, Ryegrass, Italian","[11]; 16 g ai/ha, Preemergence",100
same,"Plant response rating, Ryegrass, Italian","[11]; 31 g ai/ha, Preemergence",100
same,"Plant response rating, Ryegrass, Italian","[11]; Postemergence, 8 g ai/ha",75
same,"Plant response rating, Ryegrass, Italian","[11]; Postemergence, 16 g ai/ha",98
same,"Plant response rating, Ryegrass, Italian","[11]; Postemergence, 31 g ai/ha",98
same,"Plant response rating, Ryegrass, Italian","[11]; Postemergence, 62 g ai/ha",100
